From PubChem BioAssay AID270 (DTP/NCI, 2004)
Inconclusive results are not listed.

Tested on: BDF1 mice, s.c. Lewis lung carcinoma, T/C %
Experiment: NCI In Vivo Anticancer Drug Screen. Data for tumor model Lewis Lung Carcinoma (subcutaneous) in B6D2F1 (BDF1) mice
In short: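 Readout: survival or tumor size, expressed as treated (T) over vehicle control (C). Transplantable tumor implanted in mice; compound given to the treated group.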

## CNNCc1ccc(C(=O)NC(C)C)cc1
endpoint: median survival time, dose: 25.0 mg/kg/injection, schedule: Q08HX024 (ip), vehicle: saline, higher = longer survival
  T/C: 100 % of control
endpoint: median survival time, dose: 50.0 mg/kg/injection, schedule: Q08HX024 (ip), vehicle: saline, higher = longer survival
  T/C: 112 % of control

## NC(Cc1cc(I)c(Oc2ccc(O)c(I)c2)c(I)c1)C(=O)O (stereo unspecified)
endpoint: mean tumor weight, dose: 25.0 micrograms/kg/injection, schedule: Q01DX011 (ip), vehicle: saline, higher = larger tumour
  T/C: 93 % of control
endpoint: mean tumor weight, dose: 100.0 micrograms/kg/injection, schedule: Q01DX011 (ip), vehicle: saline, higher = larger tumour
  T/C: 115 % of control
endpoint: mean tumor weight, dose: 200.0 micrograms/kg/injection, schedule: Q01DX011 (ip), vehicle: saline, higher = larger tumour
  T/C: 118 % of control

## CC1CN=C(C(=O)C(C)C2CCC3C4CC=C5CC(O)CCC5(C)C4CCC23C)C1 (stereo unspecified)
endpoint: mean tumor weight, dose: 100.0 mg/kg/injection, schedule: Q01DX011 (sc), vehicle: steriod suspending solution, higher = larger tumour
  T/C: 118 % of control

## CCOC(=O)[C@H]1CCC[C@@H](NC(=O)N(CCCl)N=O)C1
endpoint: median tumor weight (est.), dose: 20.0 mg/kg/injection, schedule: Q01DX001 (ip), vehicle: gum acacia, higher = larger tumour
  T/C: 55 % of control
endpoint: median tumor weight (est.), dose: 30.0 mg/kg/injection, schedule: Q01DX001 (ip), vehicle: gum acacia, higher = larger tumour
  T/C: 34 % of control

## CC1(C)N=C(N)N=C(N)N1c1ccc(F)c(C(F)(F)F)c1
endpoint: median survival time, dose: 12.5 mg/kg/injection, schedule: Q01DX009 (ip), vehicle: saline, higher = longer survival
  T/C: 121 % of control
endpoint: median survival time, dose: 25.0 mg/kg/injection, schedule: Q01DX009 (ip), vehicle: saline, higher = longer survival
  T/C: 111 % of control

## CC(=O)[C@@]1(O)CC[C@H]2[C@@H]3C[C@H](C)C4=CC(=O)C=C[C@]4(C)[C@@]3(F)[C@@H](O)C[C@@]21C
endpoint: mean tumor weight, dose: 25.0 mg/kg/injection, schedule: Q01DX011 (sc), vehicle: steriod suspending solution, higher = larger tumour
  T/C: 28 % of control
endpoint: mean tumor weight, dose: 50.0 mg/kg/injection, schedule: Q01DX011 (sc), vehicle: steriod suspending solution, higher = larger tumour
  T/C: 18 % of control

## CCN=C=NCCCN(C)C
endpoint: median survival time, dose: 10.0 mg/kg/injection, schedule: Q01DX009 (ip), vehicle: saline, higher = longer survival
  T/C: 106 % of control
endpoint: median survival time, dose: 20.0 mg/kg/injection, schedule: Q01DX009 (ip), vehicle: saline, higher = longer survival
  T/C: 107 % of control
endpoint: median survival time, dose: 40.0 mg/kg/injection, schedule: Q01DX009 (ip), vehicle: saline, higher = longer survival
  T/C: 93 % of control
endpoint: median survival time, dose: 80.0 mg/kg/injection, schedule: Q01DX009 (ip), vehicle: saline, higher = longer survival
  T/C: 96 % of control
